The assay concerns MDA-MB-231 human breast cancer cells. Briefly: Cell proliferation assay (CellTiter-Glo, 72 hours treatment). Type of assay: cell-based. To be noted: Homo sapiens, read-out: MDA-MB-231 cell proliferation assay (IC50). The method, then:
Human tumor cell lines were cultured in the appropriate media (DMEM and RPMI) supplemented with penicillin G (100 U/ml), streptomycin (100 μg/ml), 10% FBS in a humidified atmosphere of 5% CO2 maintained at 37° C. Exponentially growing cells were seeded at 2,500 cells/well in 96 well plates prior to drug treatment. The following day, cells were treated with either DMSO (vehicle control) or eIF4A inhibitors at the appropriate dose for 72 hours at 37° C. Following compound treatment, cell proliferation was assessed by CellTiter-Glo assay (Promega, Madison Wis.) according to the manufacturer's protocol. Dose-response curves were fitted by non-linear regression (sigmoidal dose response model) using KaleidaGraph (Synergy Software, Reading Pa.) and IC50 values were calculated.
To this end, IC50 values of less than 100 nM are labelled as “+++”, from 100 nM to 1000 nM are labelled as “++”, and greater than 1000 nM are labelled as “+” (NA means “not available”).
On the technique in general: Cellular ATP, detected with luciferase, serves as a proxy for viable cell number.

Setting [1] is: MDA-MB-231 cells, 72 hours at 37° C., CellTiter-Glo.

Read-outs that look alike come from different tables or passages of the source.

With `COc1nc(C#N)cc2c1[C@]1(O)[C@H](O)[C@H](CN3CCC(F)(F)C3)[C@@H](c3ccccc3)[C@]1(c1ccc(C#N)cc1)O2` (racemic) [153F, Rac-(5aR,6S,7S,8R,8aS)-5a-(4-cyanophenyl)-7-((3,3-difluoropyrrolidin-1-yl)methyl)-8,8a-dihydroxy-1-methoxy-6-phenyl-5a,7,8,8a-tetrahydro-6H-cyclopenta[4,5]furo[3,2-c]pyridine-3-carbonitrile], the IC50 under setting [1] is 100 to 1000 nM.
Same read-out and setting: the figure for `COc1nc(C#N)cc2c1[C@]1(O)[C@H](O)[C@H](CN3CCC(F)CC3)[C@@H](c3ccccc3)[C@]1(c1ccc(Br)cc1)O2` (racemic) [156Fa, Rac-(5aR,6S,7S,8R,8aS)-5a-(4-bromophenyl)-7-((4-fluoropiperidin-1-yl)methyl)-8,8a-dihydroxy-1-methoxy-6-phenyl-5a,7,8,8a-tetrahydro-6H-cyclopenta[4,5]furo[3,2-c]pyridine-3-carbonitrile] is below 100 nM.
With `COc1cncc2c1[C@]1(O)[C@H](O)[C@H](C(=O)N3CCC(F)(F)C3)[C@@H](c3ccccc3)[C@]1(c1ccc(Br)cc1)O2` (racemic) [279F, Rac-((4bS,5R,6R,7S,7aR)-7a-(4-bromophenyl)-4b,5-dihydroxy-4-methoxy-7-phenyl-4b,6,7,7a-tetrahydro-5H-cyclopenta[4,5]furo[2,3-c]pyridin-6-yl)(3,3-difluoropyrrolidin-1-yl)methanone], under setting [1], the IC50 was below 100 nM.
The same measure, in the same setting: the value for `COc1cncc2c1[C@]1(O)[C@H](O)[C@H](CN(C)Cc3cccnc3)[C@@H](c3ccccc3)[C@]1(c1ccc(C#N)cc1)O2` [278F, 4-((4bS,5R,6S,7S,7aR)-4b,5-dihydroxy-4-methoxy-6-((methyl(pyridin-3-ylmethyl)amino)methyl)-7-phenyl-4b,5,6,7-tetrahydro-7aH-cyclopenta[4,5]furo[2,3-c]pyridin-7a-yl)benzonitrile] was 100 to 1000 nM; that for `COc1cncc2c1[C@]1(O)[C@H](O)[C@H](C(=O)N3[C@@H]4CCC[C@H]3CC4)[C@@H](c3ccccc3)[C@]1(c1ccc(Br)cc1)O2` (racemic) [114F, Rac-((1R,5S)-8-azabicyclo[3.2.1]octan-8-yl)((4bS,5R,6R,7S,7aR)-7a-(4-bromophenyl)-4b,5-dihydroxy-4-methoxy-7-phenyl-4b,6,7,7a-tetrahydro-5H-cyclopenta[4,5]furo[2,3-c]pyridin-6-yl)methanone] was below 100 nM; that for `COc1cncc2c1[C@]1(O)[C@H](O)[C@H](CN(C)CC(F)(F)F)[C@@H](c3ccccc3)[C@]1(c1ccc(C#N)cc1)O2` (single isomer, unassigned) [233F] was 100 to 1000 nM.
On the same count and under the same terms, the figure for `COc1cncc2c1[C@]1(O)[C@H](O)[C@H](CN)[C@@H](c3ccccc3)[C@]1(c1ccc(C#N)cc1)O2` (racemic) [65F, Rac-4-((4bS,5R,6S,7S,7aR)-6-(aminomethyl)-4b,5-dihydroxy-4-methoxy-7-phenyl-5,6,7,7a-tetrahydro-4bH-cyclopenta[4,5]furo[2,3-c]pyridin-7a-yl)benzonitrile] is 100 to 1000 nM; for `COc1nc(Cl)cc2c1[C@]1(O)[C@H](O)[C@H](CN3CC(C(F)F)C3)[C@@H](c3ccccc3)[C@]1(c1ccc(C#N)cc1)O2` (racemic) [217F, rac-4-((5aR,6S,7S,8R,8aS)-3-chloro-7-((3-(difluoromethyl)azetidin-1-yl)methyl)-8,8a-dihydroxy-1-methoxy-6-phenyl-6,7,8,8a-tetrahydro-5aH-cyclopenta[4,5]furo[3,2-c]pyridin-5a-yl)benzonitrile] it is below 100 nM; for `N#Cc1ccc([C@@]23Oc4cc(Cl)cnc4[C@]2(O)[C@H](O)[C@H](CN)[C@H]3c2ccccc2)cc1` (racemic) [30F, rac-4-((5aR,6S,7S,8R,8aS)-7-(aminomethyl)-3-chloro-8,8a-dihydroxy-6-phenyl-6,7,8,8a-tetrahydro-5aH-cyclopenta[4,5]furo[3,2-b]pyridin-5a-yl)benzonitrile] it is 100 to 1000 nM.
The same measure, in the same setting: the figure for `COc1nc(Cl)cc2c1[C@]1(O)[C@H](O)[C@H](C(=O)N(C)C)[C@@H](c3ccccc3)[C@]1(c1ccc(Br)cc1)O2` (racemic) [137F, Rac-(5aR,6S,7R,8R,8aS)-5a-(4-bromophenyl)-3-chloro-8,8a-dihydroxy-1-methoxy-N,N-dimethyl-6-phenyl-5a,7,8,8a-tetrahydro-6H-cyclopenta[4,5]furo[3,2-c]pyridine-7-carboxamide] is below 100 nM; for `COc1cncc2c1[C@]1(O)[C@H](O)[C@H](CNCc3ccnn3C)[C@@H](c3ccccc3)[C@]1(c1ccc(C#N)cc1)O2` (racemic) [242F, Rac-4-((4bS,5R,6S,7S,7aR)-4b,5-dihydroxy-4-methoxy-6-((((1-methyl-1H-pyrazol-5-yl)methyl)amino)methyl)-7-phenyl-4b,5,6,7-tetrahydro-7aH-cyclopenta[4,5]furo[2,3-c]pyridin-7a-yl)benzonitrile] it is 100 to 1000 nM.
On to `COc1cncc2c1[C@]1(O)[C@@H](CN)[C@H](CO)[C@@H](c3ccccc3)[C@]1(c1ccc(Br)cc1)O2` (racemic) [170F, Rac-(4bR,5R,6R,7S,7aR)-5-(aminomethyl)-7a-(4-bromophenyl)-6-(hydroxymethyl)-4-methoxy-7-phenyl-5,6,7,7a-tetrahydro-4bH-cyclopenta[4,5]furo[2,3-c]pyridin-4b-ol], for which the IC50 under setting [1] was below 100 nM.
Regarding `COc1cncc2c1[C@]1(O)C(=O)C(C(=O)N(C)C)[C@@H](c3ccccc3)[C@]1(c1ccc(Br)cc1)O2` (mixture of isomers) [192F, Rac-(4bR,7S,7aR)-7a-(4-bromophenyl)-4b-hydroxy-4-methoxy-N,N-dimethyl-5-oxo-7-phenyl-4b,6,7,7a-tetrahydro-5H-cyclopenta[4,5]furo[2,3-c]pyridine-6-carboxamide], for the setting “MDA-MB-231, 72 h”, the IC50 was above 1000 nM.
`COc1cncc2c1[C@]1(O)[C@@H]3OC(=O)N[C@@H]3[C@@H](c3ccccc3)[C@]1(c1ccc(C#N)cc1)O2` (single isomer, unassigned) [81F]: under setting [1], the IC50 was below 100 nM.
The same measure, in the same setting: the value for `CN(C)C(=O)[C@H]1[C@@H](O)[C@@]2(O)c3ncc(Cl)cc3O[C@@]2(c2ccc(Cl)cc2)[C@@H]1c1ccccc1` (single isomer, unassigned) [11F] was 100 to 1000 nM; that for `CS(=O)(=O)[C@H]1[C@@H](O)[C@@]2(O)c3ncc(C#N)cc3O[C@@]2(c2ccc(C#N)cc2)[C@@H]1c1ccccc1` [86F, (5aR,6S,7R,8S,8aS)-5a-(4-cyanophenyl)-8,8a-dihydroxy-7-(methylsulfonyl)-6-phenyl-5a,7,8,8a-tetrahydro-6H-cyclopenta[4,5]furo[3,2-b]pyridine-3-carbonitrile] was above 1000 nM.
Take `COc1ccc([C@@]23Oc4cc(OC)ccc4[C@]2(NC(C)=O)[C@H](O)[C@H](C(=O)N(C)C)[C@H]3c2ccccc2)cc1` (racemic) [45F, Rac-(1R,2R,3S,3aR,8bS)-8b-acetamido-1-hydroxy-6-methoxy-3a-(4-methoxyphenyl)-N,N-dimethyl-3-phenyl-2,3,3a,8b-tetrahydro-1H-cyclopenta[b]benzofuran-2-carboxamide]: under setting [1], the IC50 is above 1000 nM.
Take `COc1cncc2c1[C@]1(O)[C@H](O)[C@H](CN3CCOCC3)[C@@H](c3ccccc3)[C@]1(c1ccc(C(F)(F)F)cc1)O2` (single isomer, unassigned) [282F]: the IC50 under setting [1] was 100 to 1000 nM.
In the case of `CN(C)C[C@H]1[C@@H](O)[C@@]2(O)c3ncc(Cl)cc3O[C@@]2(c2ccc(C#N)cc2)[C@@H]1c1ccccc1` [104F, 4-((5aR,6S,7S,8R,8aS)-3-chloro-7-((dimethylamino)methyl)-8,8a-dihydroxy-6-phenyl-6,7,8,8a-tetrahydro-5aH-cyclopenta[4,5]furo[3,2-b]pyridin-5a-yl)benzonitrile], the IC50 under setting [1] was in the range of 100 to 1000 nM.
Still for that read-out and setting: the figure for `COc1cc2c(c(OC)n1)[C@]1(O)[C@H](O)[C@H](CN(C)C)[C@@H](c3ccccc3)[C@]1(c1ccc(C#N)cc1)O2` (single isomer, unassigned) [231F] is below 100 nM; for `COc1cncc2c1[C@]1(O)[C@H](O)[C@H](CN3CCC3)[C@@H](c3ccccc3)[C@]1(c1ccc(C#N)cc1)O2` (racemic) [71F, Rac-4-((4bS,5R,6S,7S,7aR)-6-(azetidin-1-ylmethyl)-4b,5-dihydroxy-4-methoxy-7-phenyl-4b,5,6,7-tetrahydro-7aH-cyclopenta[4,5]furo[2,3-c]pyridin-7a-yl)benzonitrile] it is below 100 nM.
As for `O[C@@]12C=C[C@@H](c3ccccc3)[C@]1(c1ccc(Br)cc1)Oc1cc(Cl)cnc12` (racemic) [133F, Rac-(5aR,6S,8aR)-5a-(4-bromophenyl)-3-chloro-6-phenyl-5a,6-dihydro-8aH-cyclopenta[4,5]furo[3,2-b]pyridin-8a-ol], under setting [1], the IC50 is above 1000 nM.
Same read-out and setting: the figure for `COc1cncc2c1[C@]1(O)[C@H](O)[C@H](CNCC(F)F)[C@@H](c3ccccc3)[C@]1(c1ccc(C(F)(F)F)cc1)O2` (single isomer, unassigned) [286F] is 100 to 1000 nM; for `COc1nc(C#N)cc2c1[C@]1(O)[C@H](O)[C@H](CN3CCC34CC4(F)F)[C@@H](c3ccccc3)[C@]1(c1ccc(C#N)cc1)O2` (mixture of isomers) [221F, Rac-(5aR,6S,7S,8R,8aS)-5a-(4-cyanophenyl)-7-((1,1-difluoro-4-azaspiro[2.3]hexan-4-yl)methyl)-8,8a-dihydroxy-1-methoxy-6-phenyl-5a,7,8,8a-tetrahydro-6H-cyclopenta[4,5]furo[3,2-c]pyridine-3-carbonitrile] it is below 100 nM.
